ChEMBL document CHEMBL1201862, “PubChem BioAssay data set” (2004)
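The compound was tested at five concentrations on cells cultured in 96-well plates, with a 48-hour exposure period. GI50 is the concentration that inhibits growth by half.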 Active and inactive are the calls of the source. No stated cut-off is given here; in the data, active = GI50 up to about 1.1 µM and inactive = higher.

Tests used:
Assay in all cases: DTP human tumour cell line panel, 48 h
M14 = test system: M14
SF-539 = test system: SF-539
K562 = test system: K562
HOP-92 = test system: HOP-92
LOX IMVI = test system: LOX IMVI
CCRF-CEM = test system: CCRF-CEM
NCI-H23 = test system: NCI-H23
UACC-62 = test system: UACC-62
SK-MEL-2 = test system: SK-MEL-2
A549 = test system: A549
HT-29 = test system: HT-29
HCT-116 = test system: HCT-116
SNB-75 = test system: SNB-75
RPMI-8226 = test system: RPMI-8226
IGROV-1 = test system: IGROV-1

Measured: GI50

CCOC(=O)NC(=O)c1cn(CCCCCCCCCCC(=O)NCCCN2CCN(CCCNC(=O)CCCCCCCCCCn3cc(C(=O)NC(=O)OCC)c(=O)[nH]c3=O)CC2)c(=O)[nH]c1=O
inactive: M14 > 10 µM | SF-539 > 100 µM | K562 > 100 µM | HOP-92 > 100 µM | LOX IMVI > 100 µM | CCRF-CEM > 100 µM | NCI-H23 > 100 µM | UACC-62 > 100 µM | SK-MEL-2 > 100 µM | A549 > 100 µM | HT-29 > 100 µM | HCT-116 > 100 µM | SNB-75 > 100 µM

CCCCCCCCCC(=O)CC(=O)c1c(O)cccc1O
inactive: M14 22 µM | RPMI-8226 25.6 µM | SF-539 45.4 µM | K562 27.7 µM | LOX IMVI 21.3 µM | CCRF-CEM 27.4 µM | NCI-H23 30.5 µM | IGROV-1 32.3 µM | UACC-62 33.4 µM | SK-MEL-2 30.6 µM | A549 28.8 µM | HT-29 27.3 µM | HCT-116 33.4 µM | SNB-75 28 µM

CC1=C(/C=C/C(C)=C/C2CC(N(C)C)=CC(=O)O2)C(C)(C)CCC1 (centres undefined)
inactive: M14 14.8 µM | RPMI-8226 1.37 µM | SF-539 16.5 µM | K562 3.56 µM | HOP-92 16.4 µM | LOX IMVI 15.2 µM | CCRF-CEM 3.46 µM | NCI-H23 13.5 µM | IGROV-1 14.8 µM | UACC-62 13.6 µM | SK-MEL-2 13.2 µM | A549 9.75 µM | HT-29 13.2 µM | HCT-116 12.9 µM | SNB-75 17.7 µM

COc1ccc(C(O)c2cc(OC)c(OC)c(OC)c2)cc1 (centres undefined)
inactive: M14 13 µM | RPMI-8226 19.9 µM | SF-539 21.3 µM | K562 3.78 µM | HOP-92 27.3 µM | LOX IMVI 17.2 µM | CCRF-CEM 20 µM | IGROV-1 18 µM | UACC-62 8.91 µM | A549 17.1 µM | HT-29 7.16 µM | HCT-116 24.2 µM

Nc1ccc(/N=N/c2ccc(-c3ccc(/N=N/c4c(S(=O)(=O)O)cc5cc(S(=O)(=O)O)c(/N=N/c6ccc([N+](=O)[O-])cc6)c(N)c5c4O)cc3)cc2)c2cc(S(=O)(=O)O)ccc12
inactive: M14 > 100 µM | RPMI-8226 > 100 µM | SF-539 > 100 µM | K562 > 100 µM | HOP-92 97.7 µM | LOX IMVI > 100 µM | CCRF-CEM > 100 µM | NCI-H23 > 100 µM | IGROV-1 > 100 µM | UACC-62 > 100 µM | SK-MEL-2 > 100 µM | A549 > 100 µM | HT-29 > 100 µM | HCT-116 > 100 µM | SNB-75 78.9 µM

c1cc(C2O[C@H]3CCCN3[C@@H]2c2ccncc2)ccn1 (some centres undefined)
inactive: M14 > 100 µM | RPMI-8226 > 100 µM | SF-539 > 100 µM | K562 > 100 µM | LOX IMVI > 100 µM | CCRF-CEM > 100 µM | NCI-H23 > 100 µM | IGROV-1 > 100 µM | UACC-62 > 100 µM | SK-MEL-2 > 100 µM | A549 > 100 µM | HT-29 > 100 µM | HCT-116 > 100 µM | SNB-75 > 100 µM

CCOC(=O)C(C)c1cc(C2(C)OCCO2)c(C)o1 (centres undefined)
inactive: M14 > 100 µM | RPMI-8226 > 100 µM | SF-539 > 100 µM | K562 > 100 µM | HOP-92 8.63 µM | LOX IMVI > 100 µM | CCRF-CEM > 100 µM | NCI-H23 > 100 µM | IGROV-1 > 100 µM | UACC-62 > 100 µM | SK-MEL-2 > 100 µM | A549 > 100 µM | HCT-116 > 100 µM | SNB-75 88.9 µM

CNC(=S)/N=C(\N)N(C)C
inactive: M14 > 100 µM | RPMI-8226 > 100 µM | SF-539 > 100 µM | K562 > 100 µM | HOP-92 > 100 µM | LOX IMVI > 100 µM | NCI-H23 > 10 µM | IGROV-1 > 100 µM | UACC-62 > 100 µM | A549 > 100 µM | HT-29 > 100 µM | HCT-116 > 100 µM | SNB-75 > 100 µM

Oc1c(-c2ccccc2)nc2ccccn12
inactive: M14 > 100 µM | SF-539 > 100 µM | K562 > 100 µM | CCRF-CEM > 100 µM | NCI-H23 > 100 µM | IGROV-1 > 100 µM | UACC-62 > 100 µM | SK-MEL-2 > 100 µM | A549 > 100 µM | HT-29 > 100 µM | HCT-116 > 100 µM | SNB-75 > 100 µM

COc1ccccc1C1C(Cl)C(=O)N1NC(=O)Cc1ccccc1 (centres undefined)
inactive: M14 > 100 µM | RPMI-8226 46.5 µM | K562 35.2 µM | LOX IMVI 50.5 µM | CCRF-CEM > 100 µM | NCI-H23 > 100 µM | IGROV-1 > 100 µM | UACC-62 83.2 µM | SK-MEL-2 53.7 µM | A549 > 100 µM | HT-29 > 100 µM | HCT-116 62.8 µM | SNB-75 31.7 µM

c1ccc(-c2csc3ncn4cnnc4c23)cc1
inactive: M14 > 100 µM | RPMI-8226 59.6 µM | SF-539 > 100 µM | K562 > 100 µM | HOP-92 24.6 µM | LOX IMVI 55.8 µM | CCRF-CEM 85.9 µM | NCI-H23 90.2 µM | IGROV-1 77.8 µM | UACC-62 53.3 µM | SK-MEL-2 24.8 µM | A549 > 100 µM | HT-29 > 100 µM | HCT-116 91.4 µM | SNB-75 22.3 µM

CCOC(=O)N(c1ccccc1)N(CC)C(=O)/C(C)=N/Nc1ccc([N+](=O)[O-])cc1
inactive: M14 17.9 µM | RPMI-8226 16.8 µM | SF-539 16.1 µM | K562 14.7 µM | HOP-92 15.5 µM | CCRF-CEM 17.2 µM | NCI-H23 18 µM | IGROV-1 17.3 µM | UACC-62 13.6 µM | SK-MEL-2 16 µM | A549 16.7 µM | HT-29 17.1 µM | HCT-116 14.1 µM | SNB-75 18.1 µM

C/C=C/C[C@@H](C)[C@@H](O)[C@H]1C(=O)N[C@@H](CC)C(=O)N(C)CC(=O)N(C)[C@@H](CC(C)C)C(=O)N[C@@H](C(C)C)C(=O)N(C)[C@@H](CC(C)C)C(=O)N[C@@H](C)C(=O)N[C@H](C)C(=O)N(C)[C@@H](CC(C)C)C(=O)N(C)[C@@H](CC(C)C)C(=O)N(C)[C@@H](C(C)C)C(=O)N1C [CYCLOSPORINE]
inactive: M14 2.61 µM | RPMI-8226 2.48 µM | SF-539 4.3 µM | K562 3.99 µM | HOP-92 4.65 µM | LOX IMVI 2.43 µM | CCRF-CEM 3.08 µM | NCI-H23 5.37 µM | IGROV-1 5.24 µM | UACC-62 3.85 µM | SK-MEL-2 3.17 µM | A549 5.25 µM | HT-29 2.29 µM | SNB-75 7.21 µM

C/C(=N\NC(N)=S)c1ccc(/C(C)=N/NC(N)=S)cc1
inactive: M14 > 100 µM | RPMI-8226 > 100 µM | SF-539 > 100 µM | K562 > 100 µM | HOP-92 > 100 µM | LOX IMVI > 100 µM | CCRF-CEM > 100 µM | NCI-H23 > 100 µM | IGROV-1 > 100 µM | UACC-62 > 100 µM | A549 > 100 µM | HT-29 > 100 µM | HCT-116 > 100 µM | SNB-75 > 100 µM

COC(=O)C(CCC1(C)OCCO1)=[N+]=[N-]
inactive: M14 > 100 µM | SF-539 > 100 µM | K562 > 100 µM | LOX IMVI > 100 µM | CCRF-CEM > 100 µM | NCI-H23 > 100 µM | IGROV-1 > 100 µM | SK-MEL-2 > 100 µM | A549 > 100 µM | HT-29 > 100 µM | HCT-116 > 100 µM | SNB-75 > 100 µM

Cc1cccc(NC(=O)CSc2nnc(-c3ccc(/N=C\c4ccc(Cl)cc4)cc3)o2)c1
inactive: M14 > 100 µM | RPMI-8226 > 100 µM | K562 > 100 µM | LOX IMVI 72.9 µM | CCRF-CEM > 100 µM | NCI-H23 > 100 µM | UACC-62 > 100 µM | SK-MEL-2 > 100 µM | A549 > 100 µM | HT-29 > 100 µM | HCT-116 > 100 µM | SNB-75 > 100 µM

Nc1nc(-c2ccc(Cl)c([N+](=O)[O-])c2)cs1
inactive: M14 > 100 µM | RPMI-8226 > 100 µM | SF-539 28.7 µM | K562 > 100 µM | HOP-92 16.2 µM | LOX IMVI > 100 µM | CCRF-CEM > 100 µM | NCI-H23 73.5 µM | IGROV-1 > 100 µM | UACC-62 > 100 µM | SK-MEL-2 > 100 µM | A549 > 100 µM | HT-29 > 100 µM | HCT-116 58.7 µM | SNB-75 30.4 µM

CCCCCCCCCCCCOC(=S)NCCCC
inactive: M14 27.8 µM | RPMI-8226 15.7 µM | SF-539 21.3 µM | K562 19.3 µM | HOP-92 20 µM | LOX IMVI 17 µM | CCRF-CEM 27.5 µM | NCI-H23 23 µM | IGROV-1 25.6 µM | UACC-62 16.7 µM | SK-MEL-2 18.7 µM | HT-29 19 µM | HCT-116 18.6 µM | SNB-75 30.3 µM

CCOC(=O)[C@@]1(C)C=C2O[C@@H]3OC4(CCCCC4)O[C@@H]3C2=C2C(O)=CC=C(O)[C@]21C(=O)OC
inactive: M14 20.7 µM | RPMI-8226 38.6 µM | K562 51.1 µM | HOP-92 13.4 µM | LOX IMVI > 68.1 µM | CCRF-CEM > 68.1 µM | NCI-H23 > 68.1 µM | IGROV-1 > 68.1 µM | UACC-62 > 68.1 µM | SK-MEL-2 > 68.1 µM | A549 > 68.1 µM | HT-29 > 68.1 µM | HCT-116 > 68.1 µM | SNB-75 > 68.1 µM
